How the values were obtained:
Test in all cases: relative viability (nuclei count vs DMSO), 5 days (fraction); higher = more cells survive
[1] = compound: Cn1cnc2c(F)c(Nc3ccc(Br)cc3Cl)c(C(=O)NOCCO)cc21 [Selumetinib] + Nc1nc2[nH]cc(CCc3ccc(C(=O)N[C@@H](CCC(=O)O)C(=O)O)cc3)c2c(=O)[nH]1 [Pemetrexed] (partner 0.2 µM)
How it was run: (§1)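 For relative viability, nuclei counts in treated wells were divided by those in vehicle wells. Lung cancer cell lines had been pin-tool dosed in 1536-well plates the day after seeding and cultured for 5 days, then fixed and stained in one step (final 0.05% Triton X-100, 1% formaldehyde, 1 ug/ml Hoechst) and imaged at 4×. Doses were one drug alone or a fixed anchor-drug dose plus five library-drug doses (not always all listed) in √10 steps, and values are duplicate-plate medians.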

[2] = compound: CC1(C)CCC(CN2CCN(c3ccc(C(=O)NS(=O)(=O)c4ccc(NCC5CCOCC5)c([N+](=O)[O-])c4)c(Oc4cnc5[nH]ccc5c4)c3)CC2)=C(c2ccc(Cl)cc2)C1 [Venetoclax] + Nc1nc2[nH]cc(CCc3ccc(C(=O)N[C@@H](CCC(=O)O)C(=O)O)cc3)c2c(=O)[nH]1 [Pemetrexed] (partner 0.2 µM)
How it was run: as §1

[3] = compound: Cn1cnc2c(F)c(Nc3ccc(Br)cc3Cl)c(C(=O)NOCCO)cc21 [Selumetinib] + CC(=O)Nc1cccc(-n2c(=O)n(C3CC3)c(=O)c3c(Nc4ccc(I)cc4F)n(C)c(=O)c(C)c32)c1 [Trametinib] (partner 0.02 µM)
How it was run: as §1

[4] = compound: Cn1cnc2c(F)c(Nc3ccc(Br)cc3Cl)c(C(=O)NOCCO)cc21 [Selumetinib] + COc1cc2c(Oc3ccc(NC(=O)C4(C(=O)Nc5ccc(F)cc5)CC4)cc3F)ccnc2cc1OCCCN1CCOCC1 [Foretinib] (partner 0.25 µM)
How it was run: as §1

Cell Line	relative viability ([1]; first compound 0.02 µM)	relative viability ([1]; first compound 0.06325 µM)	relative viability ([1]; first compound 0.2 µM)	relative viability ([1]; first compound 0.6325 µM)	relative viability ([2]; first compound 0.01 µM)	relative viability ([2]; first compound 0.03162 µM)	relative viability ([2]; first compound 0.1 µM)	relative viability ([2]; first compound 0.3162 µM)	relative viability ([2]; first compound 1 µM)	relative viability ([3]; first compound 0.02 µM)	relative viability ([3]; first compound 0.06325 µM)	relative viability ([3]; first compound 0.2 µM)	relative viability ([3]; first compound 0.6325 µM)	relative viability ([4]; first compound 0.02 µM)	relative viability ([4]; first compound 0.06325 µM)	relative viability ([4]; first compound 0.2 µM)	relative viability ([4]; first compound 0.6325 µM)
NCI-H522	0.962	0.942	1	0.783	1.13	1.01	0.879	1.19	0.759	0.859	0.727	0.757	0.888				
HCC-366	0.224	0.191	0.234	0.206	0.16	0.16	0.172	0.186	0.197	0.365	0.316	0.332	0.329	0.866	0.865	0.755	0.645
A-427	1.11	1.05	1.05	1.04	0.988	0.967	1.03	1.04	0.978	0.731	0.781	0.812	0.794	1.17	1.11	0.954	0.756
NCI-H2347	0.425	0.402	0.399	0.392	0.486	0.425	0.437	0.438	0.444	0.264	0.294	0.287	0.278	0.93	0.704	0.451	0.421
NCI-H1792	0.637	0.648	0.634	0.557	0.416	0.998	0.7	0.815	0.618	0.439	0.521	0.452	0.402				
LCLC-97TM1	0.186	0.237	0.219	0.258	0.165	0.182	0.167	0.163	0.153	0.195	0.171	0.201	0.19	0.898	0.818	0.585	0.525
RERF-LC-KJ	0.429	0.459	0.492	0.472	0.473	0.487	0.45	0.438	0.506	0.911	0.858	0.887	0.981	0.87	0.901	0.853	0.819
NCI-H1993	0.614	0.571	0.553	0.651	0.565	0.579	0.599	0.57	0.668	0.624	0.604	0.527	0.528	0.663	0.744	0.745	0.671
NCI-H1734	0.387	0.373	0.404	0.418	0.417	0.459	0.399	0.422	0.393	0.708	0.73	0.707	0.723	0.88	0.843	0.672	0.611
HCC-44	0.635	0.748	0.684	0.75	0.667	0.673	0.63	0.649	0.656	1.03	0.993	0.999	1.14				
SK-MES-1	0.875	0.746	0.737	0.461	0.918	1.08	0.994	0.956	0.754	0.561	0.579	0.476	0.461	0.831	0.818	0.534	0.491
EPLC-272H	0.317	0.375	0.326	0.34	0.361	0.316	0.356	0.412	0.36	0.275	0.277	0.263	0.259	0.593	0.467	0.367	0.333
NCI-H838	0.234	0.214	0.233	0.242	0.246	0.261	0.264	0.234	0.24	0.482	0.52	0.529	0.524	0.907	0.915	0.859	0.796
SK-LU-1	1	0.978	0.862	0.614	0.97	1.05	1.03	0.966	0.867	0.522	0.442	0.424	0.412	0.762	0.778	0.711	0.449
NCI-H1623														0.729	0.679	0.614	0.632
Calu-6														0.817	0.702	0.515	0.383
LCLC-103H	0.437	0.479	0.5	0.519	0.447	0.432	0.448	0.43	0.447	0.635	0.707	0.66	0.672	0.744	0.64	0.646	0.72
CAL-12T	1.28	1.25	1.1	0.969	0.965	1.23	1.14	1.22	1.19	0.282	0.343	0.285	0.298	1.05	1.04	1.14	0.839
SW 1573	0.82	0.725	0.857	0.769	0.784	0.808	0.784	0.843	0.846	0.599	0.56	0.522	0.545	0.909	0.776	0.638	0.598
NCI-H1666	0.811	0.775	0.765	0.755	0.726	0.916	0.919	0.805	0.799	0.867	0.854	0.807	0.845	0.827	0.839	0.791	0.734
